The source of these data is PubChem BioAssay AID330 (DTP/NCI, 2004).

The structures appear in SMILES notation. Several values for one entry are separate records, joined by “and”; a condition that tells them apart may be missing. Equal entries are not always repeated. Inconclusive results and toxic doses are left out. Peptide text beside a SMILES is read from it. * marks the point of attachment. For = O=C*

The subject of this assay is P388 leukemia ip, CD2F1 mice, survival T/C. Briefly: NCI In Vivo Anticancer Drug Screen. Data for tumor model P388 Leukemia (intraperitoneal) in CD2F1 (CDF1) mice. Particulars: endpoint: median survival time, higher = longer survival. In outline: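 Mice carrying the transplanted tumor received test compound or vehicle. Survival was recorded in each group, and the value is the treated-group measurement divided by that of the vehicle-treated control group.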

The mark [1] stands for this setting: dose: 200.0 mg/kg/injection, schedule: Q01DX009 (ip), vehicle: saline with Tween-80.
Setting [2] is: dose: 50.0 mg/kg/injection, schedule: Q01DX005 (ip), vehicle: Klucel (hydroxypropylcellulose) (HPC).
[3] abbreviates: dose: 100.0 mg/kg/injection, schedule: Q01DX005 (ip), vehicle: Klucel (hydroxypropylcellulose) (HPC).
Where [4] appears, read: dose: 200.0 mg/kg/injection, schedule: Q01DX005 (ip), vehicle: Klucel (hydroxypropylcellulose) (HPC).
Where [5] appears, read: dose: 30.0 mg/kg/injection, schedule: Q01DX005 (ip), vehicle: saline with Tween-80.
Where [6] appears, read: dose: 60.0 mg/kg/injection, schedule: Q01DX005 (ip), vehicle: saline with Tween-80.
Setting [7] is: dose: 120.0 mg/kg/injection, schedule: Q01DX005 (ip), vehicle: saline with Tween-80.
Where [8] appears, read: dose: 240.0 mg/kg/injection, schedule: Q01DX005 (ip), vehicle: saline with Tween-80.
Setting [9] is: dose: 50.0 mg/kg/injection, schedule: Q01DX009 (ip), vehicle: Klucel (hydroxypropylcellulose) (HPC).
Where [10] appears, read: dose: 100.0 mg/kg/injection, schedule: Q01DX009 (ip), vehicle: Klucel (hydroxypropylcellulose) (HPC).
Setting [11] is: dose: 12.5 mg/kg/injection, schedule: Q01DX009 (ip), vehicle: saline.
Setting [12] is: dose: 25.0 mg/kg/injection, schedule: Q01DX009 (ip), vehicle: saline.
[13] abbreviates: dose: 100.0 mg/kg/injection, schedule: Q01DX009 (ip), vehicle: saline.

Turning to `COc1cccc(/C=N\O)c1`, the T/C (dose: 100.0 mg/kg/injection, schedule: Q01DX009 (ip), vehicle: saline with Tween-80) was 104 % of control; the T/C under setting [1] was 100 % of control; the T/C (dose: 400.0 mg/kg/injection, schedule: Q01DX009 (ip), vehicle: saline with Tween-80) is 104 % of control.

For `CCOC(=O)C(=O)Nc1oc(C)c(C)c1C#N`, the T/C is 100 % of control and 107 % of control and 118 % of control (dose: 12.5 mg/kg/injection, schedule: Q01DX009 (ip), vehicle: saline + alcohol); 109 % of control and 116 % of control and 124 % of control (dose: 25.0 mg/kg/injection, schedule: Q01DX009 (ip), vehicle: saline + alcohol); 115 % of control (dose: 25.0 mg/kg/injection, schedule: Q04DX003 (ip), vehicle: saline + alcohol); 106 % of control (dose: 50.0 mg/kg/injection, schedule: Q04DX003 (ip), vehicle: saline + alcohol); 95 % of control (dose: 100.0 mg/kg/injection, schedule: Q01DX001 (ip), vehicle: saline + alcohol); 110 % of control and 93 % of control (dose: 100.0 mg/kg/injection, schedule: Q01DX009 (ip), vehicle: saline + alcohol). Moreover, the T/C (dose: 100.0 mg/kg/injection, schedule: Q04DX003 (ip), vehicle: saline + alcohol) is 112 % of control and the T/C (dose: 200.0 mg/kg/injection, schedule: Q01DX001 (ip), vehicle: saline + alcohol) is 96 % of control.

Turning to `O=C1/C(=C/N2CCOCC2)CCc2nc(-c3ccccc3)sc21`, the T/C reads like this: under setting [2], 109 % of control; under setting [3], 100 % of control; under setting [4], 100 % of control.

Turning to `O=S1C2CCC(Br)C1CCC2Br` (stereo not given), the T/C was 105 % of control (dose: 0.39 mg/kg/injection, schedule: Q04DX002 (ip), vehicle: saline + alcohol); 100 % of control (dose: 0.78 mg/kg/injection, schedule: Q04DX002 (ip), vehicle: saline + alcohol); 101 % of control (dose: 1.56 mg/kg/injection, schedule: Q04DX002 (ip), vehicle: saline + alcohol).

For the molecule `Cc1[nH]c(=O)[nH]c(=O)c1/C=C/C(=O)NC(CO)CSC(C)C` (stereo not given), the T/C was 86 % of control (dose: 50.0 mg/kg/injection, schedule: Q01DX009 (ip), vehicle: other); 90 % of control (dose: 200.0 mg/kg/injection, schedule: Q01DX009 (ip), vehicle: other); 89 % of control (dose: 400.0 mg/kg/injection, schedule: Q01DX009 (ip), vehicle: other).

Turning to `O=C1NC(=O)c2c1c1cnn(-c3ccccc3)c1n1cccc21`, the T/C (dose: 7.5 mg/kg/injection, schedule: Q01DX005 (ip), vehicle: saline with Tween-80) is 96 % of control; the T/C (dose: 15.0 mg/kg/injection, schedule: Q01DX005 (ip), vehicle: saline with Tween-80) was 96 % of control; the T/C under setting [5] was 87 % of control.

With `C[CH2][Ge]([CH2]C)[CH2]C(=O)OC.C[CH2][Ge]([CH2]C)[CH2]C(=O)OC`, the T/C runs as follows: under setting [2], 100 % of control; under setting [3], 100 % of control; under setting [4], 101 % of control.

With `CC(=O)C(=N/O)/C(C)=N/NC(=O)c1ccncc1`, the T/C (dose: 100.0 mg/kg/injection, schedule: Q04DX002 (ip), vehicle: saline) is 106 % of control; the T/C (dose: 200.0 mg/kg/injection, schedule: Q04DX002 (ip), vehicle: saline) is 103 % of control; the T/C (dose: 400.0 mg/kg/injection, schedule: Q04DX002 (ip), vehicle: saline) was 102 % of control.

`COC(=O)c1nc(=S)[nH]c(C(=O)OC)c1C(=O)c1ccc(O)cc1O`: the T/C runs as follows: under setting [6], 99 % of control; under setting [7], 98 % of control.

Turning to `Cc1onc(-c2c(F)cccc2Cl)c1C(=O)Oc1ccccc1`, the T/C under setting [5] is 100 % of control, the T/C under setting [6] was 100 % of control, the T/C under setting [7] is 103 % of control and the T/C under setting [8] is 99 % of control.

As to `CC(C)=CC(=O)OC1C2C(C)=CC(=O)C(O)C2(C)C2C3(O)OCC24C(CC(=O)OC14)C(C)C3O` (stereo not given), the T/C is, setting by setting: (dose: 0.5 mg/kg/injection, schedule: Q01DX009 (ip), vehicle: distilled water + Tween-80) 161 % of control; (dose: 1.0 mg/kg/injection, schedule: Q01DX009 (ip), vehicle: distilled water + Tween-80) 169 % of control and 198 % of control; (dose: 2.0 mg/kg/injection, schedule: Q01DX009 (ip), vehicle: distilled water + Tween-80) 180 % of control and 191 % of control.

For `CC(=O)OC(CC(=O)CC(O)(C(F)(F)F)C(F)(F)F)(C(F)(F)F)C(F)(F)F`, the T/C was 104 % of control (dose: 6.25 mg/kg/injection, schedule: Q04DX003 (ip), vehicle: saline) and 90 % of control (dose: 12.5 mg/kg/injection, schedule: Q04DX003 (ip), vehicle: saline).

With `Cc1ccc(NS(=O)(=O)N2CCCCC2)cc1`, the T/C was 106 % of control (dose: 12.5 mg/kg/injection, schedule: Q01DX009 (ip), vehicle: Klucel (hydroxypropylcellulose) (HPC)); 95 % of control (dose: 25.0 mg/kg/injection, schedule: Q01DX009 (ip), vehicle: Klucel (hydroxypropylcellulose) (HPC)); 98 % of control under setting [9]; 116 % of control under setting [10]; 115 % of control (dose: 200.0 mg/kg/injection, schedule: Q01DX009 (ip), vehicle: Klucel (hydroxypropylcellulose) (HPC)); 113 % of control (dose: 400.0 mg/kg/injection, schedule: Q01DX009 (ip), vehicle: Klucel (hydroxypropylcellulose) (HPC)).

Regarding `OCCCN1CCN(CCCO)CC1`, the T/C reads like this: under setting [11], 103 % of control and 96 % of control; under setting [12], 97 % of control and 98 % of control; (dose: 50.0 mg/kg/injection, schedule: Q01DX009 (ip), vehicle: saline) 92 % of control and 97 % of control; under setting [13], 101 % of control and 95 % of control; (dose: 200.0 mg/kg/injection, schedule: Q01DX009 (ip), vehicle: saline) 100 % of control and 106 % of control; (dose: 400.0 mg/kg/injection, schedule: Q01DX009 (ip), vehicle: saline) 103 % of control and 91 % of control.

Turning to `[O-][n+]1ccccc1C1CO1` (stereo not given), the T/C is, setting by setting: (dose: 6.25 mg/kg/injection, schedule: Q01DX009 (ip), vehicle: saline) 105 % of control; under setting [11], 103 % of control; under setting [12], 102 % of control; under setting [13], 88 % of control.

On to `Nc1ncnc(N)c1NC(=O)c1cc(Cl)c(OCc2ccccc2)c(Cl)c1`, for which the T/C under setting [6] is 101 % of control, the T/C under setting [7] was 95 % of control and the T/C under setting [8] is 94 % of control.

For `O=c1c2c(nc3n1CCSCC3)NCCC2`, the T/C is 104 % of control (dose: 100.0 mg/kg/injection, schedule: Q04DX002 (ip), vehicle: Klucel (hydroxypropylcellulose) (HPC)); 98 % of control (dose: 200.0 mg/kg/injection, schedule: Q04DX002 (ip), vehicle: Klucel (hydroxypropylcellulose) (HPC)); 100 % of control (dose: 400.0 mg/kg/injection, schedule: Q04DX002 (ip), vehicle: Klucel (hydroxypropylcellulose) (HPC)).

Take `Cc1cc(NC(=S)SCc2ccc(F)cc2)ccc1Br`: the T/C reads like this: under setting [9], 112 % of control and 122 % of control; (dose: 50.0 mg/kg/injection, schedule: Q01DX009 (ip), vehicle: suspension in saline) 93 % of control; under setting [10], 114 % of control and 115 % of control; (dose: 100.0 mg/kg/injection, schedule: Q01DX009 (ip), vehicle: suspension in saline) 94 % of control; (dose: 200.0 mg/kg/injection, schedule: Q01DX009 (ip), vehicle: suspension in saline) 109 % of control.

Regarding `Cc1cc(N(CCCl)CCCl)ccc1C=Nc1ccccc1C(=O)O`, the T/C by setting is: (dose: 25.0 mg/kg/injection, schedule: Q01DX009 (ip), vehicle: saline with Tween-80) 117 % of control; (dose: 50.0 mg/kg/injection, schedule: Q01DX009 (ip), vehicle: saline with Tween-80) 115 % of control; under setting [1], 150 % of control.

For the molecule `CC(NC=O)C(=O)NCC(=O)NC(CO)C(=O)NC(CCC(=O)O)C(=O)O` (stereo not given) (For-AGSE-OH; configuration not given here), the T/C reads like this: (dose: 7.81 mg/kg/injection, schedule: Q01DX005 (ip), vehicle: water) 105 % of control; (dose: 15.63 mg/kg/injection, schedule: Q01DX005 (ip), vehicle: water) 104 % of control; (dose: 31.25 mg/kg/injection, schedule: Q01DX005 (ip), vehicle: water) 101 % of control; (dose: 62.5 mg/kg/injection, schedule: Q01DX005 (ip), vehicle: water) 101 % of control; (dose: 125.0 mg/kg/injection, schedule: Q01DX005 (ip), vehicle: water) 99 % of control.
